Results from patent publication US8911717B2, “Polymalic acid-based multifunctional drug delivery system” (Cedars-Sinai Medical Center, priority 2003, dated 2014).

Legend:
[1] = tested on: protein kinase CK2 α chain; assay: Western blot of CK2 expression in cell lysates; type: cell-based, human; settings: U251MG glioma cells treated for 3 days; compared to untreated control or EPEI-treated control
Description: The protein kinase CK2 complex is a tetramer comprised of catalytic α, α′ subunits and regulatory […] subunits that form complexes such as α2β2, αα′β2 and α′2β2. To achieve downregulation of CK2, the antisense oligonucleotides against the CK2 catalytic subunit a were conjugated to PMLA. Morpholino™-NH2 antisense oligonucleotides to the protein kinase CK2 catalytical domain a chain purchased from Gene Tools (USA) were as follows:
Inhibition of CK2 expression in vitro was assessed in the cell lysates of cultured glioma cell line U251MG treated for 3 days with nanoconjugates containing Morpholino antisense oligonucleotides CK2a-1, CK2a-2 or CK2a-3.

fresh human RBCs = assay: red blood cell (RBC) hemolysis assay (membrane disruptive activity); type: cell-based; settings: pH 5.85 or pH 5.5; 2.5 nmol/10^8 RBCs; 1 h at 37° C.; absorbance of supernatant at 541 nm
Description: The fresh human RBCs were isolated by centrifugation of whole human blood at 2000 g for 5 min. The RBCs were washed three times with cold 100 mM sodium phosphate buffer of the desired pH (pH 5.85 or pH 5.5). The final pellet was resuspended in the same buffer to give a solution with […] RBCs per 1 ml. The polymers were dissolved in 100 mM dibasic sodium phosphate buffer at the desired pH at a concentration of 10 mg/ml. The polymer concentration was 2.5 nmol/10^8 RBCs. Hemolysis in distilled water was used to produce 100% lysis. RBCs in buffer with no polymer was used as reference controls. The hemolysis assay was performed by adding the polymer solution to the suspended RBCs in 1 ml of the appropriate buffer. The RBCs were mixed by inverting the tube several times, and incubated for 1 h in a 37° C. water bath. After incubation, the RBCs were centrifuged for […] at 13,500×g to sediment intact cells and the lysis was determined by measuring the absorbance of the supernatants at 541 nm which reflects the amount of hemoglobin released by the RBCs. The relative increase 100(A-Ao)/Atotal in absorbance at 541 nm wavelength of the cell-free supernatant was measured as an indicator of membrane rupture. […]

Substance	CK2 α chain expression, Western blot [1]	membrane disruptive activity (effect on RBC membranes) (fresh human RBCs)
CK2a-1: PMLA nanoconjugate containing Morpholino antisense oligonucleotide CK2a-1, SEQ ID NO: 3, GATCTGGCAGTCACTGTGTTCAGAA (all phosphorodiamidate morpholino (PMO); amine-modified morpholino conjugated to polymalic acid nanoconjugate carrier, further chemistry not fully specified)	reduction	–
CK2a-2: PMLA nanoconjugate containing Morpholino antisense oligonucleotide CK2a-2, SEQ ID NO: 4, CCTGCTTGGCACGGGTCCCGACAT (all phosphorodiamidate morpholino (PMO); amine-modified morpholino conjugated to polymalic acid nanoconjugate carrier, further chemistry not fully specified)	reduction	–
CK2a-3: PMLA nanoconjugate containing Morpholino antisense oligonucleotide CK2a-3, SEQ ID NO: 5, CGGACAAAGCTGGACTTGATGTTT (all phosphorodiamidate morpholino (PMO); amine-modified morpholino conjugated to polymalic acid nanoconjugate carrier, further chemistry not fully specified)	reduction	–
PMLA/L-valine/2-mercaptoethylamine/mPEG-NH2 conjugate [PMLA-PEG-Valine]	–	infer membrane destabilization
PMLA/mAB OX-26/morpholino antisense oligonucleotide/L-valine/2-mercaptoethylamine/mPEG-NH2 conjugate [PMLA-PEG-Valine-AS-mAB]	–	infer membrane destabilization
